Columns and labels:
Format in all cases: biochemical
[1] = target: PKC theta kinase (Homo sapiens, UniProt Q04759); experiment: PKC theta kinase inhibition, coupled-enzyme NADH absorbance assay (Ki); settings: 240 μM ATP, 18 nM PKC theta, 30° C.; read-out: Ki PKC theta
Description: (§1) An assay buffer solution was prepared which consisted of 100 mM HEPES (pH 7.5), 10 mM MgCl2, 25 mM NaCl, 0.1 mM EDTA and 0.01% Brij. […] To 60 μL of this enzyme buffer, in a 384 well plate, was added 2 μL of VRT stock solution in DMSO. The mixture was allowed to equilibrate for 10 mins at 30° C. […] Ki values were calculated from initial rate data by non-linear regression using the Prism software package (Prism 4.0a, Graphpad Software, San Diego, Calif.).

[2] = target: PKC delta kinase (Homo sapiens, UniProt Q05655); experiment: PKC delta kinase inhibition, coupled-enzyme NADH absorbance assay (Ki); settings: 150 μM ATP, 46 nM PKC delta, 30° C.; read-out: Ki PKC delta
Description: as §1, with “To 16” for “To 60”, “added 1” for “added 2”

[3] = target: PKC alpha kinase (Homo sapiens, UniProt P17252); experiment: PKC alpha kinase inhibition, coupled-enzyme NADH absorbance assay (Ki); settings: 130 μM ATP, 4.5 nM PKC alpha, 30° C.; read-out: Ki PKC alpha
Description: An assay buffer solution was prepared which consisted of 100 mM HEPES (pH 7.5), 10 mM MgCl2, 25 mM NaCl, 0.1 mM EDTA, 100 μM CaCl2 and 0.01% Brij. […] To 16 μL of this enzyme buffer, in a 384 well plate, was added 1 μL of VRT stock solution in DMSO. The mixture was allowed to equilibrate for 10 mins at 30° C. The enzyme reaction was initiated by the addition of 16 μL stock ATP solution prepared in assay buffer to a final assay concentration of 130 μM. Initial rate data was determined from the rate of change of absorbance at 340 nm (corresponding to stoichiometric consumption of NADH) using a Molecular Devices Spectramax plate reader (Sunnyvale, Calif.) over 15 mins at 30° C. […] Ki values were calculated from initial rate data by non-linear regression using the Prism software package (Prism 4.0a, Graphpad Software, San Diego, Calif.).

Chain of PKC theta kinase (Q04759 whole entry): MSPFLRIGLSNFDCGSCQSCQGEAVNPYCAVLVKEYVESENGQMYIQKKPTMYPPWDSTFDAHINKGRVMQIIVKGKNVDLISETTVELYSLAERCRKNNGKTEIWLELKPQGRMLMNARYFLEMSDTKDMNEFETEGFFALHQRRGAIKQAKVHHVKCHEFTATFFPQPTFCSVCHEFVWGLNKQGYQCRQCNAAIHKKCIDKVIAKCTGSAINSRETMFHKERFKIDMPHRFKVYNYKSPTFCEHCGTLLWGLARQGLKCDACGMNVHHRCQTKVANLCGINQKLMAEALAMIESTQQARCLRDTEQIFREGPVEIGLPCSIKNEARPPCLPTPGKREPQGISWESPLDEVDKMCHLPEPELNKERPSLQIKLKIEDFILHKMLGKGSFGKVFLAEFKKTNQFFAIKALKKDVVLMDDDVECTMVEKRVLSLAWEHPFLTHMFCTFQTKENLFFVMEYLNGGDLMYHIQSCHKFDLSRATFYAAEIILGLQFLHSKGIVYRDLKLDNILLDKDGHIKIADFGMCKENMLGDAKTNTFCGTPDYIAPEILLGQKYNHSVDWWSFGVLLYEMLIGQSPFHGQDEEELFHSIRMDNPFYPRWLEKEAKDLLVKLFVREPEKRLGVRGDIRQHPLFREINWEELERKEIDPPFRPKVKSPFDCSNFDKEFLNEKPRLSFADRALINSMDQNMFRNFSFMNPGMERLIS
Chain of PKC delta kinase (Q05655 whole entry): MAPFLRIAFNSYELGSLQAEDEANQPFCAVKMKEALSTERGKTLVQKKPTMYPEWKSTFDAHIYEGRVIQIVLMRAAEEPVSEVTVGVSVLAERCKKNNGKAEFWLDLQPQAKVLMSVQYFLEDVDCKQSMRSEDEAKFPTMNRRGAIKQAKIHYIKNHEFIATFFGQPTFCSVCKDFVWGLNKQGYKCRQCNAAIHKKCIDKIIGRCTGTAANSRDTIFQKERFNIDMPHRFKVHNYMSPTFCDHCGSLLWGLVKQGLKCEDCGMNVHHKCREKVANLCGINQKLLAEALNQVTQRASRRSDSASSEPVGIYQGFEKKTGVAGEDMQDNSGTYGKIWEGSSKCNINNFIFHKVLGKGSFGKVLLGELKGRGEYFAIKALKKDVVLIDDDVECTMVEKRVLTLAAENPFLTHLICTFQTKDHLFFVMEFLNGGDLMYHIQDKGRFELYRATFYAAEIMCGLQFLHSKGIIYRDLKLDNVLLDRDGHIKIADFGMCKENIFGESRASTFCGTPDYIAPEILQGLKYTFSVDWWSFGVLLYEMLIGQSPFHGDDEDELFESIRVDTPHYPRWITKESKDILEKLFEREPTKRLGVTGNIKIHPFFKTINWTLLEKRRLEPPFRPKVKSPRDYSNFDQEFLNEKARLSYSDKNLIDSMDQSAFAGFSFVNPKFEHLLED

Row | Structure (SMILES) | Ki [1] [nM] | Ki [2] [nM] | Ki [3] [nM]
1 | CC(C#N)(Cc1ccccn1)c1cccc(-c2ccnc3[nH]ncc23)c1 (stereo not drawn) [Compound 115] | > 700 | > 2000 | > 1200
2 | CC(C#N)(Cc1cccnc1)c1cccc(-c2ccnc3[nH]ncc23)c1 (stereo not drawn) [Compound 116] | > 700 | > 2000 | > 1200
3 | CCC(C)(C#N)c1cc(-c2ccnc3[nH]ncc23)cc(C(F)(F)CCC2CCCC2)c1 (stereo not drawn) [Compound 117] | > 700 | > 2000 | > 1200
4 | CCC(C)(C#N)c1cc(-c2ccnc3[nH]ncc23)cc(C(F)(F)CCC2CCCCC2)c1 (stereo not drawn) [Compound 118] | > 700 | > 2000 | > 1200
5 | CCC(C)(C#N)c1cc(-c2ccnc3[nH]ncc23)cc(C(F)(F)CC2CCCCC2)c1 (stereo not drawn) [Compound 119] | > 700 | > 2000 | > 1200
6 | CCC(C)(C#N)c1cc(CO)cc(-c2ccnc3[nH]ncc23)c1 (stereo not drawn) [Compound 121] | < 500 | > 2000 | > 1200
7 | CCC(C)(C#N)c1cc(/C=C/C#N)cc(-c2ccnc3[nH]ncc23)c1 (stereo not drawn) [Compound 124] | > 700 | > 2000 | > 1200
8 | CCCc1cc(-c2ccnc3[nH]ncc23)cc(C2(CC#N)CCC2)c1 [Compound 125] | < 500 | > 2000 | > 1200
9 | CCC(C)(C#N)c1cc(CC#N)cc(-c2ccnc3[nH]ncc23)c1 (stereo not drawn) [Compound 126] | < 500 | > 2000 | > 1200
10 | CCC(C)(C#N)c1cc(CCN)cc(-c2ccnc3[nH]ncc23)c1 (stereo not drawn) [Compound 127] | < 500 | > 2000 | > 1200
11 | N#CC1(c2cc(CCN)cc(-c3ccnc4[nH]ncc34)c2)CC1 [Compound 128] | < 500 | > 2000 | > 1200
12 | CCc1ccc(-c2ccnc3[nH]ncc23)cc1C(C)(C)CN [Compound 132] | < 500 | < 2800 | < 2800
13 | CCC(C)(CN)c1cc(CC(C)C)cc(-c2ccnc3[nH]ncc23)c1 (stereo not drawn) [Compound 137] | < 500 | > 2800 | > 2800
14 | CCC(C)(CN(C)C)c1cccc(-c2ccnc3[nH]ncc23)c1 (stereo not drawn) [Compound 138, 2-(3-(1H-pyrazolo[3,4-b]pyridin-4-yl)phenyl)-N,N,2-trimethylbutan-1-amine] | < 500 | < 2800 | < 2800
15 | NCC1(c2cc(-c3ccnc4[nH]ncc34)cc(C(F)(F)F)c2)CCC1 [Compound 140] | < 500 | < 2800 | < 2800
16 | COc1cc(-c2ccnc3[nH]ncc23)cc(C(C)(C)CN)c1 [Compound 142] | < 500 | < 2800 | < 2800
17 | C/C=C\c1cc(-c2ccnc3[nH]ncc23)cc(C(C)(CC)CN)c1 (stereo not drawn) [Compound 143] | < 500 | < 500 | < 2800
18 | Cc1cc(-c2ccnc3[nH]ncc23)cc(C2(CN)CCC2)c1 [Compound 145] | < 50 | < 2800 | < 2800
19 | CCCc1cc(-c2ccnc3[nH]ncc23)cc(C2(CN)CCCC2)c1 [Compound 147] | < 500 | > 2800 | > 2800

Other lines, results leading:

Row | Ki [1] [nM] | Ki [2] [nM] | Ki [3] [nM] | Structure (SMILES)
20 | < 500 | > 2000 | > 1200 | CCC(C)(C#N)c1cc(CC(F)(F)F)cc(-c2ccnc3[nH]ncc23)c1 (stereo not drawn) [Compound 113]
21 | < 50 | > 2000 | > 1200 | N#CC1(c2cc(CCO)cc(-c3ccnc4[nH]ncc34)c2)CC1 [Compound 114]
22 | < 500 | > 2000 | > 1200 | CCC(C)(C#N)c1cc(C=O)cc(-c2ccnc3[nH]ncc23)c1 (stereo not drawn) [Compound 120]
23 | < 50 | < 2800 | < 2800 | N#CC1(c2cc(-c3ccnc4[nH]ncc34)cc(C(F)(F)CN)c2)CC1 [Compound 122]
24 | < 50 | < 2800 | < 2800 | CNCC(F)(F)c1cc(-c2ccnc3[nH]ncc23)cc(C2(C#N)CC2)c1 [Compound 123]
25 | < 50 | < 50 | < 500 | CC(CN)(CC1CC1)c1cccc(-c2ccnc3[nH]ncc23)c1 (stereo not drawn) [Compound 129]
26 | < 50 | < 2800 | < 2800 | CCCc1cc(-c2ccnc3[nH]ncc23)cc(C(C)(CC)CN)c1 (stereo not drawn) [Compound 130]
27 | < 50 | < 2800 | < 500 | CCc1cc(-c2ccnc3[nH]ncc23)cc(C(C)(CC)CN)c1 (stereo not drawn) [Compound 131]
28 | < 50 | < 500 | < 500 | CCC(C)(CN)c1cc(Cl)cc(-c2ccnc3[nH]ncc23)c1 (stereo not drawn) [Compound 133]
29 | < 50 | < 500 | < 500 | C=CCC(C)(CN)c1cccc(-c2ccnc3[nH]ncc23)c1 (stereo not drawn) [Compound 134]
30 | < 50 | < 50 | < 50 | C#CCC(C)(CN)c1cccc(-c2ccnc3[nH]ncc23)c1 (stereo not drawn) [Compound 135]
31 | < 50 | < 2800 | < 2800 | CC(F)c1cc(-c2ccnc3[nH]ncc23)cc(C(C)(C)CN)c1 (stereo not drawn) [Compound 136]
32 | < 50 | < 500 | < 500 | CCC(C)(CN)c1cc(-c2ccnc3[nH]ncc23)cc(C(F)(F)F)c1 (stereo not drawn) [Compound 139]
33 | < 50 | < 500 | < 500 | CCC(C)(CNC)c1cccc(-c2ccnc3[nH]ncc23)c1 (stereo not drawn) [Compound 141]
34 | < 50 | < 500 | < 500 | CCC(C)(CN)c1cc(C)cc(-c2ccnc3[nH]ncc23)c1 (stereo not drawn) [Compound 144]
35 | < 50 | < 500 | < 2800 | COCCC(C)(CN)c1cccc(-c2ccnc3[nH]ncc23)c1 (stereo not drawn) [Compound 146]
36 | < 50 | < 50 | < 500 | CC(CN)(CC(F)F)c1cccc(-c2ccnc3[nH]ncc23)c1 (stereo not drawn) [Compound 148]
37 | < 50 | < 500 | < 500 | CC(CN)(Cc1ccccc1)c1cccc(-c2ccnc3[nH]ncc23)c1 (stereo not drawn) [Compound 149]
38 | < 50 | < 500 | < 2800 | COCC(C)(CN)c1cccc(-c2ccnc3[nH]ncc23)c1 (stereo not drawn) [Compound 150]
39 | < 50 | < 50 | < 500 | CC[C@](C)(CN)c1cccc(-c2ccnc3[nH]ncc23)c1 [Compound 151]
40 | < 50 | < 500 | < 500 | CC[C@@](C)(CN)c1cccc(-c2ccnc3[nH]ncc23)c1 [Compound 152]
41 | < 50 | < 2800 | < 2800 | NCC1(c2cccc(-c3ccnc4[nH]ncc34)c2)CC1 [Compound 153]
42 | < 50 | < 500 | < 500 | CC(C)=CCC(C)(CN)c1cccc(-c2ccnc3[nH]ncc23)c1 (stereo not drawn) [Compound 154]
43 | < 50 | < 50 | < 500 | CC#CCC(C)(CN)c1cccc(-c2ccnc3[nH]ncc23)c1 (stereo not drawn) [Compound 155]
44 | < 50 | < 2800 | < 500 | CCC(C)(CN)c1cc(CCCO)cc(-c2ccnc3[nH]ncc23)c1 (stereo not drawn) [Compound 156]
45 | < 50 | < 2800 | < 2800 | NCC1(c2cccc(-c3ccnc4[nH]ncc34)c2)CCOCC1 [Compound 157]
